In paper PMC10947197, “Acid‐Resistant BODIPY Amino Acids for Peptide‐Based Fluorescence Imaging of GPR54 Receptors in Pancreatic Islets” (Angewandte Chemie (International Ed. in English), 2023):

Test: Optical properties (absorbance, emission, extinction coefficient)
Type: physicochemical
Excerpt: Supplementary Figure 3. Det er m inat ion of t he ex t inc t i on c oef f ic i ent of T rp-BO DI PY P LUS in EtOH. V alues pr es ent e d as m eans ±S E M ( n= 6) .
S u p p l emen t ary F i gu re 4 . […]
(also on this page, place not known: 0.0 0.1 0.2 0.3 0.4 0.5 0.6 ε: 87,680 M-1cm-1 R2: 0.98 (µM) Optical density (500 nm) Determination the extinction coefficient Trp-BODIPY Values presented means±SEM (n=6). Wavelength (nm) fluorescence (RFU) Relative Supplementary Figure 4. Representative emission spectra Trp-BODIPY PLUS µM) water (black) and dioxane (green). (n=3).) […]
Sp ectro sco p y mea su rem en ts. O pt ical prop ert ies were me asure d in a Synergy H 1 B ioT ek spect rop hot om et er at t he ind icat ed co ncent rat i ons o n 96 or 38 4-we ll p lat es.
A bs or ba nc e and em is s i on s pec t r a wer e det er m i ned in t he r ange of 400– 700 nm ( ev er y 2 nm). F or liposom e exp erime nt s, phosph at idylc hol ine (P C)-bas ed li posom es wer e pur c has ed f r om Lipos om a, dilut ed in PBS, and t r ans f er r ed int o a blac k f lat -bot t om 96-well pl at e f or opt ical measur ement s. […]
Cel l exp eri men t s. W ork wit h hum an per iph eral b loo d leuk ocyt es comp lie d wit h al l releva nt et hical r egu lat io ns and inf orme d conse nt was obt a ine d. T he st udy prot oco l was approv ed by t he Medica l Regi ona l Et hics Commit t ee ( 21-EMREC - 04 1) at t he Univers ity of Edinb urgh. H uman blo od le ukocytes w ere iso late d from hea lthy volunt e ers. Brief ly, whole b loo d was ant i-c o agu lat ed w it h s odium c it r at e [ 0. 4% ( w/ v ) f inal c onc ent r at io n] and c ent r if ug ed at 350 g for 20 m i n. P lat elet-ric h plasma w as r em ov ed and aut o log ous s er um was ge ner at e d by r ec alc if ic at ion wit h CaC l2 ( 20 m M f inal co ncent rat i on). […] 5 %/ 63%/ 7 2. 9% d is c ont i nuo us gr adi ent s . […] 9 % int er f ac e. […]
HE K29 3 cel l s. Immort alize d huma n embry onic ki dney ce lls HE K 293 w ere gro wn i n DM EM wit hout py r uv at e wit h 4. 5 g L-1 of D-gluc os e, F B S , and penic ill in/ s t r ept om y c i n

CC1=CC(C)=[N+]2C1=C(c1cccc(-c3[nH]c4ccccc4c3C[C@H](NC(=O)OCC3c4ccccc4-c4ccccc43)C(=O)O)c1)c1c(C)cc(C)n1[B-]2(C#N)C#N [Trp-BODIPY PLUS]
Absorbance maximum wavelength: 500 nm | Emission maximum wavelength: 515 nm | Extinction coefficient (in EtOH, optical density at 500 nm, n=6, fit to Beer's law): 87,680 M-1cm-1
